Test results: PMC9501548, “Synthesis of Potential Antiviral Agents for SARS-CoV-2 Using Molecular Hybridization Approach” (Molecules, 2022)
Several values for one entry are separate records, joined by “and”; a condition that tells them apart may be missing. Equal entries are not always repeated. Where two headings read alike, the source gives them in different places.

Key:
in vitro = settings: Chlorocebus aethiops (African green monkey)
[1] = test system: SARS-CoV-2 (hCoV-19/Egypt/NRC-03/2020); assay: Anti-SARS-CoV-2 IC50 determination in Vero-E6 cells (inhibition of virus-induced cytopathic effect, crystal violet); type: cell-based; settings: for IC50: Severe acute respiratory syndrome coronavirus 2, Vero C1008, SARS-CoV-2 in Vero-E6 cells, 72 h, CPE reduction; for SI: selectivity index, ratio of CC50 relative to IC50
[2] = test system: SARS-CoV-2 (hCoV-19/Egypt/NRC-03/2020); set-up: method as in PMID 34775204; settings: standard reference, cited from earlier work
VERO-E6 cells = test system: VERO-E6 cells; set-up: method as in PMID 34775204; settings: standard reference; cited from earlier work

Row | SMILES | CC50 at 24 h (in vitro) | melting point [°C] | IC50 [1] | SI [1] | IC50 ([2]; anti-SARS-CoV-2) [µM] | SI ([2]; ratio of CC50 relative to IC50) | CC50 (VERO-E6 cells) [µM]
1 | O=C1C(=Cc2cn(C/C=C/COc3cc(C(F)(F)F)nc4ccccc34)c3ccccc23)SC(=S)N1CCc1ccccc1 (mixture of isomers) [10a, (E/Z)-3-Phenethyl-2-thioxo-5-((1-((E)-4-((2-(trifluoromethyl)quinolin-4-yl)oxy)but-2-en-1-yl)-1H-indol-3-yl)methylene)thiazolidin-4-one] | 370 µg/mL | 179 to 181 |  |  |  |  | 
2 | O=C1C(=Cc2cn(CCCCOc3cc(C(F)(F)F)nc4ccccc34)c3ccccc23)SC(=S)N1CCc1ccccc1 (mixture of isomers) [9d, (E/Z)-3-Phenethyl-2-thioxo-5-((1-(4-((2-(trifluoromethyl)quinolin-4-yl)oxy)butyl)-1H-indol-3-yl)methylene)thiazolidin-4-one] | 294 µg/mL and 465 µM | 157 to 159 | 257 µg/mL and 407 µM | 1.1 |  |  | 
3 | O=C1C(=Cc2cn(CCCCOc3cc(C(F)(F)F)nc4ccc(Cl)cc34)c3ccccc23)SC(=S)N1CCc1ccccc1 (mixture of isomers) [9f, (E/Z)-5-((1-(4-((6-Chloro-2-(trifluoromethyl)quinolin-4-yl)oxy)butyl)-1H-indol-3-yl)methylene)-3-phenethyl-2-thioxothiazolidin-4-one] | 370 µg/mL and 555 µM | 181 to 183 | 109 µg/mL and 164 µM | 3.4 |  |  | 
4 | O=C1C(=Cc2cn(CCCCOc3cc(C(F)(F)F)nc4ccc(F)cc34)c3ccccc23)SC(=S)N1CCc1ccccc1 (mixture of isomers) [9e, (E/Z)-5-((1-(4-((6-Fluoro-2-(trifluoromethyl)quinolin-4-yl)oxy)butyl)-1H-indol-3-yl)methylene)-3-phenethyl-2-thioxothiazolidin-4-one] | 305 µg/mL and 469 µM | 160 to 162 | 276 µg/mL and 424 µM | 1.1 |  |  | 
5 | O=C1C(=Cc2cn(CCCOc3cc(C(F)(F)F)nc4ccccc34)c3ccccc23)SC(=S)N1CCc1ccccc1 (mixture of isomers) [9a, (E/Z)-3-Phenethyl-2-thioxo-5-((1-(3-((2-(trifluoromethyl)quinolin-4-yl)oxy)propyl)-1H-indol-3-yl)methylene)thiazolidin-4-one] | 210 µg/mL | 185 to 187 |  |  |  |  | 
6 | Cc1ccc2nc(C(F)(F)F)cc(OCCCCCCn3cc(C=C4SC(=S)N(CCc5ccccc5)C4=O)c4ccccc43)c2c1 (mixture of isomers) [9k, (E/Z)-5-((1-(6-((6-Methyl-2-(trifluoromethyl)quinolin-4-yl)oxy)hexyl)-1H-indol-3-yl)methylene)-3-phenethyl-2-thioxothiazolidin-4-one] | 201 µg/mL and 299 µM | 148 to 150 | 160 µg/mL and 238 µM | 1.3 |  |  | 
7 | O=C1C(=Cc2cn(CCCCCCOc3cc(C(F)(F)F)nc4ccc(F)cc34)c3ccccc23)SC(=S)N1CCc1ccccc1 (mixture of isomers) [9i, (E/Z)-5-((1-(6-((6-Fluoro-2-(trifluoromethyl)quinolin-4-yl)oxy)hexyl)-1H-indol-3-yl)methylene)-3-phenethyl-2-thioxothiazolidin-4-one] | 262 µg/mL | 185 to 187 |  |  |  |  | 
8 | Cc1ccc2nc(C(F)(F)F)cc(OCCCCn3cc(C=C4SC(=S)N(CCc5ccccc5)C4=O)c4ccccc43)c2c1 (mixture of isomers) [9g, (E/Z)-5-((1-(4-((6-Methyl-2-(trifluoromethyl)quinolin-4-yl)oxy)butyl)-1H-indol-3-yl)methylene)-3-phenethyl-2-thioxothiazolidin-4-one] | 591 µg/mL | 175 to 177 |  |  |  |  | 
9 | O=C1C(=Cc2cn(CCCCCCOc3cc(C(F)(F)F)nc4ccc(Cl)cc34)c3ccccc23)SC(=S)N1CCc1ccccc1 (mixture of isomers) [9j, (E/Z)-5-((1-(6-((6-Chloro-2-(trifluoromethyl)quinolin-4-yl)oxy)hexyl)-1H-indol-3-yl)methylene)-3-phenethyl-2-thioxothiazolidin-4-one] | 380 µg/mL | 184 to 186 |  |  |  |  | 
10 | Cc1ccc2nc(C(F)(F)F)cc(OCCCn3cc(C=C4SC(=S)N(CCc5ccccc5)C4=O)c4ccccc43)c2c1 (mixture of isomers) [9c, (E/Z)-5-((1-(3-((6-Methyl-2-(trifluoromethyl)quinolin-4-yl)oxy)propyl)-1H-indol-3-yl)methylene)-3-phenethyl-2-thioxothiazolidin-4-one] | 310 µg/mL | 182 to 184 |  |  |  |  | 
11 | O=C1C(=Cc2cn(CCCOc3cc(C(F)(F)F)nc4ccc(Cl)cc34)c3ccccc23)SC(=S)N1CCc1ccccc1 (mixture of isomers) [9b, (E/Z)-5-((1-(3-((6-Chloro-2-(trifluoromethyl)quinolin-4-yl)oxy)propyl)-1H-indol-3-yl)methylene)-3-phenethyl-2-thioxothiazolidin-4-one] | 227 µg/mL | 176 to 179 |  |  |  |  | 
12 | O=C1C(=Cc2cn(CCCCCCOc3cc(C(F)(F)F)nc4ccccc34)c3ccccc23)SC(=S)N1CCc1ccccc1 (mixture of isomers) [9h, (E/Z)-3-Phenethyl-2-thioxo-5-((1-(6-((2-(trifluoromethyl)quinolin-4-yl)oxy)hexyl)-1H-indol-3-yl)methylene)thiazolidin-4-one] | 258 µg/mL | 180 to 182 |  |  |  |  | 
13 | CCN(CCO)CCCC(C)Nc1ccnc2cc(Cl)ccc12 (stereo not shown) [Hydroxychloroquine] |  |  |  |  | 29.2 | 12.2 | 356
14 | Cc1ccc2nc(C(F)(F)F)cc(OC/C=C/Cn3cc(C=C4SC(=S)N(CCc5ccccc5)C4=O)c4ccccc43)c2c1 (mixture of isomers) [10b, (E/Z)-5-((1-((E)-4-((6-Methyl-2-(trifluoromethyl)quinolin-4-yl)oxy)but-2-en-1-yl)-1H-indol-3-yl)methylene)-3-phenethyl-2-thioxothiazolidin-4-one] | 290 µg/mL | 168 to 170 |  |  |  |  | 
